37 compounds from patent publication US20090023718A1 (Aton Pharma, Inc., priority 2003, published 2009) can be followed below.

T1 sequence (Q13547 whole entry): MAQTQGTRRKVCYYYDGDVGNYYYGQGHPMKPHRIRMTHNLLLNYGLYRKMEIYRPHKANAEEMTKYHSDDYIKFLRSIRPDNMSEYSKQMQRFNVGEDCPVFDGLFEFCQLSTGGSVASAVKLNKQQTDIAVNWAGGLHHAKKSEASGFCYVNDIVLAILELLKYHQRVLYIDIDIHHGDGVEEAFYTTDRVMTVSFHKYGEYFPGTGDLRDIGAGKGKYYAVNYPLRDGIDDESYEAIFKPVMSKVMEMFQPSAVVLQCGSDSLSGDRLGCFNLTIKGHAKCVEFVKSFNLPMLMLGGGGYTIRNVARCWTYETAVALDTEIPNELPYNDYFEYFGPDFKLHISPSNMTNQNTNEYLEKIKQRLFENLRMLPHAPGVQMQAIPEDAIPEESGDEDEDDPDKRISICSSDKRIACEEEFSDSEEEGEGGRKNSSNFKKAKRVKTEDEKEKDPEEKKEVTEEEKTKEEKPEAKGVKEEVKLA

One assay has as its target T1, histone deacetylase, subtype 1 (HDAC1) (Homo sapiens, UniProt Q13547).
T1 construct: Flag; made in house
The assay is described as follows: HDAC1-Flag assay (in vitro fluorescent deacetylation assay). Type of assay: biochemical. The conditions noted are these: Table 1, compounds of formula II; epitope-tagged human HDAC1 complex, substrate at Km; mean ± spread (N); read-out: HDAC Inhibition (IC50) nm. On the procedure:
Novel compounds were tested for their ability to inhibit histone deacetylase, subtype 1 (HDAC1) using an in vitro deacetylation assay. The enzyme source for this assay was an epitope-tagged human HDAC1 complex immuno-purified from stably expressing mammalian cells. The substrate consisted of a commercial product containing an acetylated lysine side chain (BIOMOL Research Laboratories, Inc., Plymouth Meeting, Pa.). Upon deacetylation of the substrate by incubation with the purified HDAC1 complex, a fluorophore is produced that is directly proportional to the level of deacetylation.
In general, IC50 refers to the concentration that inhibits the measured activity by half. Regarding `O=C(CCCCCC(=O)N(CC(=O)Nc1ccc2[nH]ncc2c1)CC(=O)Nc1ccc2[nH]ncc2c1)NO` [Compound 1, Heptanedioic acid bis-[(1H-indazol-5-ylcarbamoyl)-methyl]-amide hydroxyamide], the 50% inhibitory concentration (IC50) was 1 nM.
As for `O=C(CCCCCC(=O)N(CC(=O)Nc1ccc2ncccc2c1)CC(=O)Nc1ccc2ncccc2c1)NO` [Compound 2, Heptanedioic acid bis-(quinolin-ylcarbamoylmethyl)-amide hydroxyamide], the IC50 came to 5.5 ± 0.7 nM.
With `O=C(CCCCCC(=O)N(CC(=O)Nc1ccc2c(c1)OCCO2)CC(=O)Nc1ccc2c(c1)OCCO2)NO` [Compound 5, Heptanedioic acid bis-[(2,3-dihydro-benzo[1,4]dioxin-6-ylcarbamoyl)-methyl]-amide hydroxyamide], the half-maximal inhibitory concentration (IC50) worked out at 19 nM.
As to `O=C(CCCCCC(=O)N(CC(=O)NCc1ccccc1)CC(=O)Nc1ccccc1)NO` [Compound 10, Heptanedioic acid (benzylcarbamoyl-methyl)-phenylcarbamoylmethyl-amide hydroxyamide], the IC50 worked out at 27.5 ± 10.6 nM.
`O=C(CCCCCC(=O)N(CC(=O)NCCc1ccccc1)CC(=O)NCCc1ccccc1)NO` [Compound 12, Heptanedioic acid bis-(phenethylcarbamoyl-methyl)-amide hydroxyamide]: the IC50 is 58 ± 9.8 nM.
As for `O=C(CCCCCC(=O)N(CC(=O)NCc1ccccc1)CC(=O)NCc1ccccc1)NO` [Compound 13, Heptanedioic acid bis-(benzylcarbamoyl-methyl)-amide hydroxyamide], the IC50 turned out to be 61.5 ± 6.3 nM.
On the same count and under the same terms, under `O=C(CCCCCC(=O)N(CC(=O)NC1CCCCC1)CC(=O)NC1CCCCC1)NO` [Compound 14, Heptanedioic acid bis-cyclohexylcarbamoylmethyl-amide hydroxyamide] stands 76 ± 14.1 nM.
For the compound `O=C(CCCCCC(=O)N(CC(=O)Nc1ccc(OCc2ccccc2)cc1)CC(=O)Nc1ccc(OCc2ccccc2)cc1)NO` [Compound 16, Heptanedioic acid bis-[(4-benzyloxy-phenylcarbamoyl)-methyl]-amide hydroxyamide], the IC50 is 91.5 ± 58.6 nM.
`O=C(CCCCCCC(=O)N(CC(=O)Nc1ccc2ncccc2c1)CC(=O)Nc1ccc2ncccc2c1)NO` [Compound 17, Octanedioic acid bis-(quinolin-6-ylcarbamoylmethyl)-amide hydroxyamide]: the IC50 came out at 102 ± 33.2 nM.
Turning to `O=C(CCCCCC(=O)N(CC(=O)Nc1cccc(OCc2ccccc2)c1)CC(=O)Nc1cccc(OCc2ccccc2)c1)NO` [Compound 18, Heptanedioic acid bis-[(3-benzyloxy-phenylcarbamoyl)-methyl]-amide hydroxyamide], the IC50 amounted to 159 ± 159 nM.
On the same count and under the same terms, under `O=C(CCCCCCC(=O)N(CC(=O)NCCc1ccccc1)CC(=O)NCCc1ccccc1)NO` [Compound 19, Octanedioic acid bis-(phenethylcarbamoyl-methyl)-amide hydroxyamide] stands 231 ± 65.5 nM.
For `O=C(CCCCCCC(=O)N(CC(=O)NCc1ccccc1)CC(=O)NCc1ccccc1)NO` [Compound 20, Octanedioic acid bis-(benzylcarbamoyl-methyl)-amide hydroxyamide], the IC50 was found to be 247 ± 99.9 nM.
Still for that read-out and setting: next, `O=C(CCCCCCC(=O)N(CC(=O)NC1CCCCC1)CC(=O)NC1CCCCC1)NO` [Compound 21, Octanedioic acid bis-cyclohexylcarbamoylmethyl-amide hydroxyamide]: 539 ± 97 nM.
On to `O=C(CCCCCCC(=O)N(CC(=O)Nc1ccc(OCc2ccccc2)cc1)CC(=O)Nc1ccc(OCc2ccccc2)cc1)NO` [Compound 22, Octanedioic acid bis-[(4-benzyloxy-phenylcarbamoyl)-methyl]-amide hydroxyamide], for which the IC50 is 848 ± 481 nM.
Still for that read-out and setting: under `O=C(CCCCCCC(=O)N(CC(=O)Nc1cccc(OCc2ccccc2)c1)CC(=O)Nc1cccc(OCc2ccccc2)c1)NO` [Compound 23, Octanedioic acid bis-[(3-benzyloxy-phenylcarbamoyl)-methyl]-amide hydroxyamide] stands 861 ± 403 nM; under `O=C(CCCCCC(=O)N(CC(=O)Nc1ccccc1Oc1ccccc1)CC(=O)Nc1ccccc1Oc1ccccc1)NO` [Compound 26, Heptanedioic acid bis-[(2-phenoxy-phenylcarbamoyl)-methyl]-amide hydroxyamide], 449 ± 40.3 nM; under `O=C(CCCCCC(=O)N(CC(=O)Nc1ccc(N2CCOCC2)cc1)CC(=O)Nc1ccc(N2CCOCC2)cc1)NO` [Compound 27, Heptanedioic acid bis-[(4-morpholin-4-yl-phenylcarbamoyl)-methyl]-amide hydroxyamide], 40 ± 8.4 nM.
Consider `Cc1ccc(S(=O)(=O)Nc2ccc(NC(=O)CN(CC(=O)Nc3ccc(NS(=O)(=O)c4ccc(C)cc4)cc3)C(=O)CCCCCC(=O)NO)cc2)cc1` [Compound 28, Heptanedioic acid bis{[4-(toluene-4-sulfonylamino)-phenylcarbamoyl]-methyl}-amide hydroxyamide], for which the IC50 was determined as 33 ± 12.7 nM.
`O=C(CCCCCC(=O)N(CC(=O)Nc1cccc(Oc2ccccc2)c1)CC(=O)Nc1cccc(Oc2ccccc2)c1)NO` [Compound 30, Heptanedioic acid bis-[(3-phenoxy-phenylcarbamoyl)-methyl]-amide hydroxyamide]: the IC50 worked out at 137 ± 18.3 nM.
With `O=C(CCCCCC(=O)N(CC(=O)Nc1ccc2c(c1)Cc1ccccc1-2)CC(=O)Nc1ccc2c(c1)Cc1ccccc1-2)NO` [Compound 31, Heptanedioic acid bis-[(9H-fluoren-2-ylcarbamoyl)-methyl]-amide hydroxyamide], the IC50 was 59 ± 18.3 nM.
On to `CC(C)(C)c1ccc(NC(=O)CN(CC(=O)Nc2ccc(C(C)(C)C)cc2)C(=O)CCCCCC(=O)NO)cc1` [Compound 32], for which the IC50 was 152 ± 48.7 nM.
Still for that read-out and setting: next, `O=C(CCCCCC(=O)N(CC(=O)NCCc1c[nH]c2ccccc12)CC(=O)NCCc1c[nH]c2ccccc12)NO` [Compound 33, Heptanedioic acid bis-{[2-(1H-indol-3-yl)-ethylcarbamoyl]-methyl}-amide hydroxyamide]: 39.5 ± 37.4 nM; `Cn1c(NC(=O)CN(CC(=O)Nc2nc3ccccc3n2C)C(=O)CCCCCC(=O)NO)nc2ccccc21` [Compound 38, Heptanedioic acid bis-[(1-methyl-1H-benzoimidazol-2-ylcarbamoyl)-methyl]-amide hydroxyamide]: 84 ± 8.4 nM.

Still in this assay, the particulars now being: Table 2, compounds of formula III; epitope-tagged human HDAC1 complex, substrate at Km; mean ± spread (N); read-out: HDAC Inhibition (IC50) nm.
On to “6-{Bis-[2-(3,4-dihydro-1H-isoquinolin-2-yl)-2-oxo-ethyl]-amino}-hexanoic acid hydroxyamide [Compound 46]”, for which the 50% inhibitory concentration (IC50) was determined as 153 ± 29.6 nM.
For the compound `O=C(CCCCCN(CC(=O)NCCc1ccccc1)CC(=O)NCCc1ccccc1)NO` [Compound 42, 6-[Bis-(phenethylcarbamoyl-methyl)-amino]-hexanoic acid hydroxyamide], the concentration for half-maximal inhibition (IC50) stood at 55.5 ± 0.7 nM.
As to `O=C(CCCCCCCN(CC(=O)Nc1ccccc1)CC(=O)Nc1ccccc1)NO` [Compound 43, 8-(Bis-phenylcarbamoylmethyl-amino)-octanoic acid hydroxyamide], the 50% inhibitory concentration (IC50) turned out to be 86.5 ± 26.1 nM.
For `O=C(CCCCN(CC(=O)Nc1ccccc1)CC(=O)Nc1ccccc1)NO` [Compound 44, 5-(Bis-phenylcarbamoylmethyl-amino)-pentanoic acid hydroxyamide], the IC50 came to 133 ± 59.3 nM.
In the case of `O=C(CCCCCN(CC(=O)N1CCN(c2ccccc2)CC1)CC(=O)N1CCN(c2ccccc2)CC1)NO` [Compound 45, 6-{Bis-[2-oxo-2-(4-phenyl-piperazin-1-yl)-ethyl]-amino}-hexanoic acid hydroxyamide], the IC50 stood at 140 ± 16.2 nM.
For `O=C(CCCCCCCN(CC(=O)NCc1ccccc1)CC(=O)NCc1ccccc1)NO` [Compound 47, 8-[Bis-(benzylcarbamoyl-methyl)-amino]-octanoic acid hydroxyamide], the IC50 stood at 181 ± 23.3 nM.
Turning to `O=C(CCCCCN(CC(=O)NCc1ccccc1)CC(=O)NCc1ccccc1)NO` [Compound 48, 6-[Bis-(benzylcarbamoyl-methyl)-amino]-hexanoic acid hydroxyamide], the IC50 was found to be 187 ± 10.6 nM.
For the compound `O=C(CCCCCCCN(CC(=O)NCCc1ccccc1)CC(=O)NCCc1ccccc1)NO` [Compound 49, 8-[Bis-(phenethylcarbamoyl-methyl)-amino]-octanoic acid hydroxyamide], the IC50 turned out to be 191 ± 20.5 nM.
As for `O=C(CCCCCN(CC(=O)NC1CCCCC1)CC(=O)NC1CCCCC1)NO` [Compound 50, 6-(Bis-cyclohexylcarbamoylmethyl-amino)-hexanoic acid hydroxyamide], the IC50 is 267 ± 32.5 nM.
In the case of `CC(C)CNC(=O)CN(CCCCCC(=O)NO)CC(=O)NCC(C)C` [Compound 51, 6-[Bis-(isobutylcarbamoyl-methyl)-amino]-hexanoic acid hydroxyamide], the IC50 stood at 288 ± 53 nM.
On the same count and under the same terms, under `O=C(CCCCCN(CC(=O)NCC1CCCCC1)CC(=O)NCC1CCCCC1)NO` [Compound 52, 6-{Bis-[(cyclohexylmethyl-carbamoyl)-methyl]-amino}-hexanoic acid hydroxyamide] stands 311 ± 24.7 nM.
Still for that read-out and setting: under `O=C(CCCCCN(CC(=O)N1CCC(Cc2ccccc2)CC1)CC(=O)N1CCC(Cc2ccccc2)CC1)NO` [Compound 53, 6-{Bis-[2-(4-benzyl-piperidin-1-yl)-2-oxo-ethyl]-amino}-hexanoic acid hydroxyamide] stands 873 ± 57.9 nM; under `O=C(CCCCN(CC(=O)NCCc1ccccc1)CC(=O)NCCc1ccccc1)NO` [Compound 54, 5-[Bis-(phenethylcarbamoyl-methyl)-amino]-pentanoic acid hydroxyamide], 886 ± 20.5 nM.

The assay is the same for the next values; noted with them: Table 3, compounds of formula IV; epitope-tagged human HDAC1 complex, substrate at Km; mean ± spread (N); read-out: HDAC Inhibition (IC50) nm.
Turning to “8-[4-(4-Chloro-phenyl)-piperazin-1-yl]-8-oxo-octanoic acid hydroxyamide [Compound 78]”, the IC50 was determined as 36.5 ± 4.9 nM.
